Source: PubChem BioAssay AID200 (DTP/NCI, 2004)
Values joined by “and” are separate entries in the source; they are usually repeats but may differ in a detail not shown here. Identical values can stand only once. Toxic doses and inconclusive results are not listed. *1 amine or outer side, *2 acyl side, *3 side chain or, on linkers, in order; H or OH if unused. Where a SMILES comes first, the peptide text is derived from it. Bridges are numbered along the chain shown (N, C = ends). Roman numbers before positions name the chains, in order. [ ]: non-standard residue; d: D form. Actinocin(9to1) = Cc1c2oc3c(C)ccc(C(=O)[*:1])c3nc-2c(C(=O)[*:2])c(N)c1=O; aThr = C[C@H](O)[C@H](N)C(=O)O; NMeV = CN[C@H](C(=O)O)C(C)C; Sar = CNCC(=O)O

Test system: B6C3F1 mice, B16 melanoma ip, median survival T/C
Experiment: NCI In Vivo Anticancer Drug Screen. Data for tumor model B16 Melanoma (intraperitoneal) in B6C3F1 mice
Conditions: endpoint: median survival time, higher = longer survival
Procedure, shortened: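 Values are T/C ratios: the measurement in treated animals divided by that in vehicle-treated controls, using survival or tumor size in mice carrying transplantable tumors.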

[1] = dose: 6.25 mg/kg/injection, schedule: Q01DX009 (ip), vehicle: saline with Tween-80
[2] = dose: 12.5 mg/kg/injection, schedule: Q01DX009 (ip), vehicle: saline with Tween-80
[3] = dose: 25.0 mg/kg/injection, schedule: Q01DX009 (ip), vehicle: saline with Tween-80
[4] = dose: 50.0 mg/kg/injection, schedule: Q01DX009 (ip), vehicle: saline with Tween-80
[5] = dose: 100.0 mg/kg/injection, schedule: Q01DX009 (ip), vehicle: saline with Tween-80
[6] = dose: 12.5 mg/kg/injection, schedule: Q01DX009 (ip), vehicle: Klucel (hydroxypropylcellulose) (HPC)
[7] = dose: 25.0 mg/kg/injection, schedule: Q01DX009 (ip), vehicle: Klucel (hydroxypropylcellulose) (HPC)
[8] = dose: 200.0 mg/kg/injection, schedule: Q01DX009 (ip), vehicle: saline with Tween-80
[9] = dose: 100.0 mg/kg/injection, schedule: Q01DX009 (ip), vehicle: suspension in saline
[10] = dose: 200.0 mg/kg/injection, schedule: Q01DX009 (ip), vehicle: suspension in saline

For `Cc1c2oc3c(C)ccc(C(=O)N[C@@H]4C(=O)N[C@H](C(C)C)C(=O)N5CCC[C@H]5C(=O)N(C)CC(=O)N(C)[C@@H](C(C)C)C(=O)O[C@H]4C)c3nc-2c(C(=O)N[C@@H]2C(=O)N[C@H](C(C)C)C(=O)N3CCC[C@H]3C(=O)N(C)CC(=O)N(C)[C@@H](C(C)C)C(=O)O[C@H]2C)c(N)c1=O` (I: [aThr][dV]P[Sar][NMeV] / II: [aThr][dV]P[Sar][NMeV]; ester I:1-I:C, II:1-II:C; linker I:N-II:N via Actinocin(9to1)), the T/C (dose: 6.25 micrograms/kg/injection, schedule: Q01DX009 (ip), vehicle: saline + alcohol) was 118 % of control, the T/C (dose: 6.25 micrograms/kg/injection, schedule: Q01DX009 (ip), vehicle: water) was 117 % of control and the T/C (dose: 6.3 micrograms/kg/injection, schedule: Q01DX009 (ip), vehicle: saline + alcohol) was 108 % of control and 110 % of control. For the same compound, the T/C (dose: 12.5 micrograms/kg/injection, schedule: Q01DX009 (ip), vehicle: saline + alcohol) was 115 % of control, the T/C (dose: 25.0 micrograms/kg/injection, schedule: Q01DX009 (ip), vehicle: water) was 151 % of control and the T/C (dose: 50.0 micrograms/kg/injection, schedule: Q01DX009 (ip), vehicle: saline + alcohol) was 172 % of control. The T/C (dose: 50.0 micrograms/kg/injection, schedule: Q01DX009 (ip), vehicle: water) was 171 % of control, the T/C (dose: 100.0 micrograms/kg/injection, schedule: Q01DX009 (ip), vehicle: saline + alcohol) was 160 % of control and 166 % of control and the T/C (dose: 100.0 micrograms/kg/injection, schedule: Q01DX009 (ip), vehicle: water) was 181 % of control. For the same compound, the T/C (dose: 200.0 micrograms/kg/injection, schedule: Q01DX009 (ip), vehicle: saline + alcohol) was 159 % of control and 174 % of control.
With `CC1/C=C/C=C/CC/C=C/C=C/C=C/C=C/C(OC2OC(C)C(O)C(N)C2O)CC2OC(CC(O)C(O)CCC(O)CC(O)CC(O)CC(=O)OC(C)C(C)C1O)CC(O)C2C(=O)O` (configuration not stated) the T/C [1] was 107 % of control, the T/C [2] was 96 % of control and the T/C [3] was 102 % of control. For the same compound, the T/C [4] was 98 % of control and the T/C [5] was 90 % of control.
`C=C1C(O)C2OC3(CCC(/C=C/C(C)C4CC5(C)SC5C5(OC(CC(C)(O)C(=O)O)CCC5O)O4)O3)CCC2OC1C(O)CC(C)C1OC2(CCCCO2)CCC1C` (configuration not stated) was tested, and the T/C (dose: 1.25 micrograms/kg/injection, schedule: Q01DX009 (ip), vehicle: saline + alcohol) was 104 % of control, the T/C (dose: 2.5 micrograms/kg/injection, schedule: Q01DX009 (ip), vehicle: saline + alcohol) was 111 % of control and the T/C (dose: 5.0 micrograms/kg/injection, schedule: Q01DX009 (ip), vehicle: saline + alcohol) was 120 % of control. The T/C (dose: 20.0 micrograms/kg/injection, schedule: Q01DX009 (ip), vehicle: saline + alcohol) was 97 % of control.
In the case of `NC(=O)CC(NC(=O)OCC1c2ccccc2-c2ccccc21)C(=O)O` (configuration not stated), the T/C [6] is reported as 116 % of control and the T/C [7] is reported as 107 % of control.
With `Nc1nc(N)c(N=O)c(Nc2ccc(I)cc2)n1` the T/C [4] was 115 % of control, the T/C [5] was 110 % of control and the T/C [8] was 98 % of control.
`Nc1ccc(S(=O)(=O)N/N=C/c2ccccc2[N+](=O)[O-])cc1` was tested, and the T/C (dose: 3.12 mg/kg/injection, schedule: Q01DX009 (ip), vehicle: saline with Tween-80) was 95 % of control, the T/C [1] was 95 % of control and the T/C [2] was 96 % of control. The T/C [3] was 101 % of control and the T/C [4] was 104 % of control.
In the case of `O=C1NCC(Br)C(=O)N1` (configuration not stated), the T/C (dose: 6.25 mg/kg/injection, schedule: Q01DX009 (ip), vehicle: saline + Tween-80 + alcohol) is reported as 90 % of control, the T/C (dose: 12.5 mg/kg/injection, schedule: Q01DX009 (ip), vehicle: saline + Tween-80 + alcohol) is reported as 99 % of control and 101 % of control and the T/C [2] is reported as 102 % of control. The T/C (dose: 25.0 mg/kg/injection, schedule: Q01DX009 (ip), vehicle: saline + Tween-80 + alcohol) was 100 % of control and 106 % of control, the T/C [3] was 94 % of control and 105 % of control and the T/C (dose: 50.0 mg/kg/injection, schedule: Q01DX009 (ip), vehicle: saline + Tween-80 + alcohol) was 114 % of control and 105 % of control. The T/C [4] was 114 % of control, the T/C (dose: 100.0 mg/kg/injection, schedule: Q01DX009 (ip), vehicle: saline + Tween-80 + alcohol) was 109 % of control and 100 % of control and the T/C [5] was 116 % of control. The T/C (dose: 200.0 mg/kg/injection, schedule: Q01DX009 (ip), vehicle: saline + Tween-80 + alcohol) was 96 % of control.
For `CC[C@@]1(O)C(=O)OCc2c1cc1n(c2=O)Cc2cc3ccccc3nc2-1`, the T/C (dose: 0.1 mg/kg/injection, schedule: Q01DX009 (ip), vehicle: other) was 108 % of control, the T/C (dose: 1.5 mg/kg/injection, schedule: Q01DX009 (ip), vehicle: saline with Tween-80) was 174 % of control and the T/C (dose: 3.0 mg/kg/injection, schedule: Q01DX009 (ip), vehicle: saline with Tween-80) was 189 % of control.
In the case of `O=C(NC(Cc1c[nH]c2ccccc12)C(=O)O)OCC1c2ccccc2-c2ccccc21` (configuration not stated), the T/C [7] is reported as 102 % of control, the T/C (dose: 50.0 mg/kg/injection, schedule: Q01DX009 (ip), vehicle: Klucel (hydroxypropylcellulose) (HPC)) is reported as 92 % of control and the T/C (dose: 100.0 mg/kg/injection, schedule: Q01DX009 (ip), vehicle: Klucel (hydroxypropylcellulose) (HPC)) is reported as 103 % of control.
With `[Cl][Pt+2][Cl].[NH-]c1ccccc1[NH-]` the T/C (dose: 0.63 mg/kg/injection, schedule: Q01DX009 (ip), vehicle: saline with Tween-80) was 99 % of control, the T/C (dose: 1.25 mg/kg/injection, schedule: Q01DX009 (ip), vehicle: saline with Tween-80) was 111 % of control and the T/C (dose: 5.0 mg/kg/injection, schedule: Q01DX009 (ip), vehicle: saline with Tween-80) was 150 % of control.
In the case of `Cc1c2cc[n+](CCO)cc2c(C)c2c1[nH]c1ccc(O)cc12`, the T/C (dose: 0.31 mg/kg/injection, schedule: Q01DX009 (ip), vehicle: saline) is reported as 113 % of control and the T/C (dose: 0.62 mg/kg/injection, schedule: Q01DX009 (ip), vehicle: saline) is reported as 91 % of control.
With `COC12[C@@H]3N[C@@H]3CN1C1=C(C(=O)C(NCCSSCCNC3=C(C)C(=O)C4=C(C3=O)C(COC(N)=O)[C@]3(OC)C5N[C@@H]5CN43)=C(C)C1=O)[C@@H]2COC(N)=O` (some centres not stated) the T/C (dose: 0.75 mg/kg/injection, schedule: Q04DX003 (ip), vehicle: suspension in saline) was 193 % of control, the T/C (dose: 1.5 mg/kg/injection, schedule: Q04DX003 (ip), vehicle: suspension in saline) was 190 % of control and the T/C (dose: 3.0 mg/kg/injection, schedule: Q04DX003 (ip), vehicle: suspension in saline) was 218 % of control. For the same compound, the T/C (dose: 6.0 mg/kg/injection, schedule: Q04DX003 (ip), vehicle: suspension in saline) was 218 % of control and the T/C (dose: 12.0 mg/kg/injection, schedule: Q04DX003 (ip), vehicle: suspension in saline) was 218 % of control.
In the case of `CC(C)(C)OC(=O)N1CCCC1C(=O)N1CCCC1C(=O)Oc1ccccc1` (configuration not stated), the T/C [3] is reported as 103 % of control, the T/C [4] is reported as 93 % of control and the T/C [5] is reported as 100 % of control. The T/C [9] was 118 % of control, the T/C [8] was 94 % of control and the T/C [10] was 115 % of control. For the same compound, the T/C (dose: 400.0 mg/kg/injection, schedule: Q01DX009 (ip), vehicle: suspension in saline) was 104 % of control.
For `CC(=O)Nc1cc2oc3ccccc3c2cc1[N+](=O)[O-]`, the T/C [5] was 88 % of control and the T/C (dose: 400.0 mg/kg/injection, schedule: Q01DX009 (ip), vehicle: saline with Tween-80) was 91 % of control.
`COC1=C(OC)C(=O)C(Sc2ccc3ccccc3c2)=CC1=O` was tested, and the T/C [1] was 86 % of control and 97 % of control, the T/C [2] was 95 % of control and the T/C [3] was 96 % of control. The T/C [4] was 86 % of control.
With `C[Si](C)(C)O/C=C1\CCCCC1=O` the T/C [1] was 105 % of control, the T/C [2] was 104 % of control and the T/C [3] was 113 % of control. For the same compound, the T/C [4] was 105 % of control, the T/C [5] was 110 % of control and the T/C [8] was 97 % of control.
With `CC#CCOCC(O)CCl` (configuration not stated) the T/C (dose: 25.0 mg/kg/injection, schedule: Q01DX009 (ip), vehicle: suspension in saline) was 96 % of control, the T/C (dose: 50.0 mg/kg/injection, schedule: Q01DX009 (ip), vehicle: suspension in saline) was 105 % of control and the T/C [9] was 106 % of control. The T/C [10] was 102 % of control.
In the case of `CCCCc1ccc(-n2c(C)c(COC(=O)NC)c(COC(=O)NC)c2C)cc1`, the T/C (dose: 6.25 mg/kg/injection, schedule: Q01DX009 (ip), vehicle: Klucel (hydroxypropylcellulose) (HPC)) is reported as 170 % of control, the T/C [6] is reported as 174 % of control and the T/C [7] is reported as 169 % of control.
`CCCCCC(O)C1C(=O)OC(C)C(O)/C=C/C=C/C=C/C=C/C=C(\C)C(O)C(O)C(O)CC(O)CC(O)CC(O)CC(O)CC1O` (configuration not stated) was tested, and the T/C (dose: 0.5 mg/kg/injection, schedule: Q01DX009 (ip), vehicle: other) was 98 % of control, the T/C (dose: 1.0 mg/kg/injection, schedule: Q01DX009 (ip), vehicle: other) was 119 % of control and the T/C (dose: 1.56 mg/kg/injection, schedule: Q01DX009 (ip), vehicle: saline) was 102 % of control. For the same compound, the T/C (dose: 3.12 mg/kg/injection, schedule: Q01DX009 (ip), vehicle: saline) was 88 % of control, the T/C (dose: 4.0 mg/kg/injection, schedule: Q01DX009 (ip), vehicle: other) was 169 % of control and the T/C (dose: 8.0 mg/kg/injection, schedule: Q01DX009 (ip), vehicle: other) was 166 % of control.
